Measurements: the supplement of paper PMC10883282
± gives the standard deviation of the averaged measurements.

Tests used:
[1] = tested on: SYO-1; assay: standardised AUC of viability dose-response curve (72 h) (fraction (0-1)); higher = less growth inhibition (more resistant)
Procedure, shortened: (§1)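 After 72 h with 2.5 µl of compound (compound-plate series 10 mM to 0.0002 mM), triplicate wells of sarcoma cell lines in 384-well plates were read with ATPLite, with viability scaled 1 (full) to 0 (none) and fitted with a four-parameter log-logistic model. The values give the standardised area under the dose-response curve in log-dose space from a modified drexplorer computeAUC. A value of 1 means no response and 0 means full response.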

[2] = tested on: SW982; assay: as above
Procedure, shortened: as §1

[3] = tested on: SK-ES-1; assay: as above
Procedure, shortened: as §1

[4] = tested on: A204; assay: as above
Procedure, shortened: as §1

[5] = tested on: RD-ES; assay: as above
Procedure, shortened: as §1

[6] = tested on: VA-ES-BJ; assay: as above
Procedure, shortened: as §1

[7] = tested on: G401; assay: as above
Procedure, shortened: as §1

[8] = tested on: RD; assay: as above
Procedure, shortened: as §1

[9] = tested on: MES-SA; assay: as above
Procedure, shortened: as §1

[10] = tested on: KHOS-NP; assay: as above
Procedure, shortened: as §1

[11] = tested on: KHOS-240S; assay: as above
Procedure, shortened: as §1

[12] = tested on: SW684; assay: as above
Procedure, shortened: as §1

[13] = tested on: HT1080; assay: as above
Procedure, shortened: as §1

[14] = tested on: SK-LMS-1; assay: as above
Procedure, shortened: as §1

[15] = tested on: SW1353; assay: as above
Procedure, shortened: as §1

[16] = tested on: HS729; assay: as above
Procedure, shortened: as §1

[17] = tested on: SW872; assay: as above
Procedure, shortened: as §1

[18] = tested on: VA-ES-BJ; assay: relative viability vs DMSO control (72 h) (fraction); higher = more viable cells
Procedure, shortened: (§2)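 Sarcoma cell lines were grown in 384-well plates seeded toward 80–90% confluence and exposed 24 h later to serially diluted compound. After 72 h at 37 °C and 5% CO2, with 0.1% DMSO vehicle and a 5 µM positive control on the plates, ATPLite was read. Relative viability, given as percent growth averaged over up to triplicate wells, was rescaled so that 1 is full and 0 is none.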

[19] = tested on: RD; assay: as above
Procedure, shortened: as §2

[20] = tested on: MES-SA; assay: as above
Procedure, shortened: as §2

[21] = tested on: SK-LMS-1; assay: as above
Procedure, shortened: as §2

[22] = tested on: HS729; assay: as above
Procedure, shortened: as §2

COc1cc2ncnc(Nc3cccc(Cl)c3F)c2cc1OC(=O)N1CCN(C)C[C@H]1C [AZD-3759]
Conditions	standardised AUC
[1]	0.91
[2]	0.977
[3]	0.972
[4]	0.958
[5]	0.992
[6]	0.955
[7]	0.972
[8]	0.991
[9]	0.974
[10]	0.969
[11]	0.967
[12]	0.978
[13]	0.975
[14]	0.964
[15]	0.922
[16]	0.906
[17]	0.967

relative viability
Conditions	[18]	[19]	[20]	[21]	[22]
0.00017 µM	1.03 ± 0.021	1.04 ± 0.051	0.938 ± 0.011	1.14 ± 0.016	1.05 ± 0.057
0.00051 µM	1.05 ± 0.061	1.1 ± 0.03	0.921 ± 0.025	1.12 ± 0.012	0.958 ± 0.03
0.00152 µM	1.04 ± 0.016	1.1 ± 0.039	0.953 ± 0.055	1.08 ± 0.032	0.934 ± 0.024
0.00457 µM	1.02 ± 0.032	1.1 ± 0.032	0.917 ± 0.064	1.09 ± 0.031	0.971 ± 0.075
0.01372 µM	1.02 ± 0.011	1.11 ± 0.021	0.94 ± 0.029	1.09 ± 0.012	0.966 ± 0.11
0.04115 µM	0.992 ± 0.036	1.09 ± 0.022	0.929 ± 0.027	1.09 ± 0.011	0.875 ± 0.053
0.1235 µM	0.986 ± 0.038	1.09 ± 0.066	0.921 ± 0.031	1.09 ± 0.025	0.94 ± 0.087
0.3704 µM	0.949 ± 0.033	1.12 ± 0.01	0.891 ± 0.054	1.088 ± 0.0068	0.878 ± 0.056
1.111 µM	0.975 ± 0.035	1.08 ± 0.036	0.902 ± 0.025	1.07 ± 0.055	0.856 ± 0.034
3.333 µM	0.972 ± 0.013	1.06 ± 0.05	0.8425 ± 0.0084	1.02 ± 0.045	0.812 ± 0.028
10 µM	0.952 ± 0.046	0.97 ± 0.01	0.777 ± 0.033	1.05 ± 0.035	0.781 ± 0.044

Cc1cc(Nc2ncc(Cl)c(Nc3ccccc3S(=O)(=O)C(C)C)n2)c(OC(C)C)cc1C1CCNCC1 [Ceritinib]
relative viability
Conditions	[18]	[19]	[20]	[21]	[22]
0.00017 µM	1.05 ± 0.036	0.996 ± 0.055	0.953 ± 0.036	1.01 ± 0.015	0.955 ± 0.063
0.00051 µM	1.04 ± 0.035	1.02 ± 0.032	0.92 ± 0.065	1.04 ± 0.014	1.02 ± 0.042
0.00152 µM	1.04 ± 0.033	1.04 ± 0.05	0.95 ± 0.028	1.04 ± 0.019	1.03 ± 0.053
0.00457 µM	1.05 ± 0.024	0.996 ± 0.039	0.951 ± 0.026	1.03 ± 0.032	1.01 ± 0.029
0.01372 µM	1.06 ± 0.012	1.03 ± 0.036	0.963 ± 0.046	1.022 ± 0.0083	1.03 ± 0.033
0.04115 µM	1.03 ± 0.015	1.02 ± 0.071	0.969 ± 0.033	1.01 ± 0.051	1.02 ± 0.042
0.1235 µM	1.02 ± 0.037	0.947 ± 0.034	0.96 ± 0.022	1.05 ± 0.051	0.95 ± 0.068
0.3704 µM	0.975 ± 0.018	0.771 ± 0.052	0.98 ± 0.028	0.959 ± 0.046	0.847 ± 0.067
1.111 µM	0.954 ± 0.054	0.576 ± 0.045	0.94 ± 0.023	0.96 ± 0.03	0.751 ± 0.052
3.333 µM	0.929 ± 0.035	0.381 ± 0.031	0.676 ± 0.039	0.794 ± 0.093	0.626 ± 0.018
10 µM	-0.008 ± 0.0015	0.001 ± 0.00044	-0.00177 ± 0.00067	0.00573 ± 0.00047	0.0042 ± 0.0004

COc1cc(OC)cc(N(CCNC(C)C)c2ccc3ncc(-c4cnn(C)c4)nc3c2)c1 [Erdafitinib]
relative viability
Conditions	[18]	[19]	[20]	[21]	[22]
0.00017 µM	1.08 ± 0.038	1.05 ± 0.037	0.911 ± 0.054	0.987 ± 0.047	1 ± 0.06
0.00051 µM	1.05 ± 0.015	1.09 ± 0.032	0.9276 ± 0.0063	0.991 ± 0.019	0.868 ± 0.015
0.00152 µM	1.06 ± 0.051	1.08 ± 0.051	0.909 ± 0.05	0.994 ± 0.023	0.844 ± 0.046
0.00457 µM	1.02 ± 0.045	1.08 ± 0.032	0.85 ± 0.02	1 ± 0.054	0.813 ± 0.081
0.01372 µM	1.04 ± 0.015	1.09 ± 0.053	0.837 ± 0.01	0.999 ± 0.045	0.74 ± 0.06
0.04115 µM	1.03 ± 0.025	1.09 ± 0.072	0.741 ± 0.044	0.954 ± 0.012	0.613 ± 0.036
0.1235 µM	1.06 ± 0.028	1.13 ± 0.076	0.679 ± 0.028	0.946 ± 0.04	0.604 ± 0.0076
0.3704 µM	1.04 ± 0.03	1.13 ± 0.053	0.667 ± 0.02	0.913 ± 0.015	0.549 ± 0.023
1.111 µM	0.92 ± 0.05	1.11 ± 0.052	0.616 ± 0.03	0.839 ± 0.026	0.487 ± 0.012
3.333 µM	0.612 ± 0.021	0.677 ± 0.013	0.409 ± 0.014	0.673 ± 0.023	0.423 ± 0.015
10 µM	0.355 ± 0.012	0.269 ± 0.028	0.148 ± 0.0092	0.183 ± 0.0094	0.37 ± 0.011

CCCS(=O)(=O)N[C@H]1C[C@@H](N(C)c2ncnc3[nH]ccc23)C1 [Abrocitinib]
relative viability
Conditions	[18]	[19]	[20]	[21]	[22]
0.00017 µM	1.02 ± 0.033	1.06 ± 0.057	0.929 ± 0.014	1 ± 0.039	0.926 ± 0.048
0.00051 µM	1.02 ± 0.07	1.12 ± 0.028	0.904 ± 0.021	1.03 ± 0.036	0.935 ± 0.032
0.00152 µM	1 ± 0.038	1.11 ± 0.058	0.9 ± 0.017	1.01 ± 0.0099	0.937 ± 0.084
0.00457 µM	1.03 ± 0.02	1.09 ± 0.078	0.9254 ± 0.0076	1.02 ± 0.028	0.951 ± 0.049
0.01372 µM	1.02 ± 0.057	1.09 ± 0.074	0.917 ± 0.011	1.04 ± 0.019	0.94 ± 0.047
0.04115 µM	1.05 ± 0.052	1.11 ± 0.061	0.932 ± 0.039	1.04 ± 0.05	0.95 ± 0.027
0.1235 µM	1.03 ± 0.038	1.09 ± 0.07	0.922 ± 0.013	0.992 ± 0.047	0.909 ± 0.03
0.3704 µM	1.05 ± 0.063	1.08 ± 0.065	0.942 ± 0.027	1.01 ± 0.038	0.91 ± 0.025
1.111 µM	1.06 ± 0.051	1.15 ± 0.039	0.912 ± 0.02	1.01 ± 0.029	0.941 ± 0.021
3.333 µM	1.03 ± 0.033	1.1 ± 0.037	0.933 ± 0.029	1.02 ± 0.02	0.8836 ± 0.0067
10 µM	1.01 ± 0.029	1.09 ± 0.022	0.893 ± 0.024	1.02 ± 0.024	0.892 ± 0.02

COc1cc2nccc(Oc3ccc(NC(=O)C4(C(=O)Nc5ccc(F)cc5)CC4)cc3)c2cc1OC [Cabozantinib]
relative viability
Conditions	[18]	[19]	[20]	[21]	[22]
0.00017 µM	1.07 ± 0.019	1.073 ± 0.0038	0.994 ± 0.029	1.13 ± 0.049	1.1 ± 0.023
0.00051 µM	1.06 ± 0.016	1.09 ± 0.025	0.953 ± 0.041	1.13 ± 0.063	0.966 ± 0.056
0.00152 µM	1.04 ± 0.015	1.09 ± 0.058	0.947 ± 0.022	1.133 ± 0.0043	0.973 ± 0.062
0.00457 µM	1 ± 0.017	1.12 ± 0.042	0.948 ± 0.036	1.13 ± 0.028	0.928 ± 0.049
0.01372 µM	1.04 ± 0.034	1.11 ± 0.06	0.934 ± 0.02	1.09 ± 0.018	0.9662 ± 0.0076
0.04115 µM	1.03 ± 0.039	1.12 ± 0.028	0.929 ± 0.023	0.982 ± 0.032	0.897 ± 0.076
0.1235 µM	0.9802 ± 0.0071	1.13 ± 0.083	0.912 ± 0.027	0.599 ± 0.0083	0.83 ± 0.049
0.3704 µM	0.971 ± 0.027	1.11 ± 0.061	0.89 ± 0.05	0.379 ± 0.0053	0.749 ± 0.027
1.111 µM	0.91 ± 0.037	1.13 ± 0.061	0.807 ± 0.031	0.339 ± 0.016	0.64 ± 0.03
3.333 µM	0.68 ± 0.035	0.864 ± 0.078	0.262 ± 0.013	0.205 ± 0.011	0.504 ± 0.025
10 µM	0.266 ± 0.024	0.501 ± 0.016	0.163 ± 0.01	0.11 ± 0.036	0.288 ± 0.037
